Patent US9562084B2, “Peptides derived from NCAPG2 and their use” (NATIONAL CANCER CENTER, priority 2014, dated 2017)
Where a SMILES comes first, the peptide text is derived from it. [ ]: non-standard residue; d: D form. pT = C[C@@H](OP(=O)(O)O)[C@H](N)C(=O)O

Key:
human PLK1-PBD (371-594) = molecular target: T1, human PLK1-PBD (371-594) (Homo sapiens, UniProt P53350); assay: Fluorescence polarisation binding assay for the PBD of PLK1; conditions: FITC-labelled peptide 10 nM, protein 0 to 4 μM
T1 construct: The human PLK1-PBD (371-594) was amplified by PCR; GST (N, cleaved yes); made in house; host or cells: E. coli Rosetta2(DE3)pLysS
Experimental: The human PLK1-PBD (371-594) was amplified by PCR and cloned into the pGEX6p-1 vector using the EcoRI and XhoI restriction enzyme sites. The protein was overexpressed in E. coli Rosetta2(DE3)pLysS cells (Novagen). The cells were grown at 37° C. in 3 L of Terrific Broth medium to an OD600 of 0.6, and recombinant protein expression was induced with 0.1 mM isopropyl β-D-thiogalactopyranoside (IPTG) at 20° C. The cells were further grown at 20° C. for 20 hr after IPTG induction. The purification methods were similar to methods that have been previously reported (Cheng, K. Y., et al. The crystal structure of the human polo-like kinase-1 polo box domain and its phospho-peptide complex. EMBO J 22, 5757-68 (2003)). Briefly, the cell pellet was resuspended in ice-cold HBS buffer (10 mM HEPES pH 7.5, 200 mM NaCl, 3.4 mM EDTA, 0.01% (v/v) 1-thioglycerol) and homogenized by sonication. After sonication, the cell debris was centrifuged and supernatant was applied to GST Sepharose resin (GE Healthcare). After extensive washing with HBS buffer, protein was eluted with HBS buffer supplemented with 20 mM reduced glutathione. PreScission protease (GE Healthcare) was added to eluted protein in order to remove the fused GST and the cleavage product was diluted and re-passed through GST Sepharose column. The flow through was collected and applied to Superdex 75 prep grade column (GE Healthcare) equilibrated with HBS buffer. The purified protein was concentrated to 6 mg/ml and used for fluorescence polarization binding assay or crystal screening.
For the fluorescence polarisation binding assay, FITC-labelled 1010pT (GVLSpTLI) or 1010T (GVLSTLI) (SEQ ID NO: 8) peptide was mixed with purified PBD and incubated in a buffer containing 10 mM HEPES (pH7.5), 50 mM NaCl, 1 mM EDTA, 1 mM DTT, and 0.0025% (v/v) Tween 20. The final protein concentrations ranged from 0 to 4 μM, and the final peptide concentration was 10 nM. Fluorescence polarisation was analysed 30 min after mixing the peptide and proteins in a 96-well plate using a VERSAmax microplate reader (Molecular Devices). Binding curves were fitted using GraphPad Prism software (GraphPad Software).
The human PLK1-PBD (371-594), PLK2-PBD (451-685) and PLK3-PBD (412-646) genes were cloned into pGEX6p-1 vector using EcoRI/XhoI restriction sites. […] The purified PLK-PBD proteins were concentrated and used for the fluorescence polarization binding assay.
For the fluorescence polarization binding assay, each fluorescein isothiocyanate (FITC)-labeled 1010pT (GVLSpTLI), 1010T (GVLSTLI), 1010E (GVLSELI), or 1010D (GVLSDLI) peptide was mixed with purified PLK1, PLK2 or PLK3 and incubated in a buffer containing 10 mM HEPES (pH 7.5), 50 mM NaCl, 1 mM EDTA, 1 mM DTT and 0.0025% (v/v) Tween 20. […]

human PLK2-PBD (451-685) = molecular target: T2, human PLK2-PBD (451-685) (Homo sapiens, UniProt Q9NYY3); assay: Fluorescence polarization binding assay, PLK2-PBD; conditions: FITC-labelled peptide 10 nM, protein 0 to 4 uM
T2 construct: PLK2-PBD (451-685); GST (N, cleaved yes); made in house; host or cells: E. coli Rosetta2 (DE3) pLysS
T2 sequence (Q9NYY3 451-685): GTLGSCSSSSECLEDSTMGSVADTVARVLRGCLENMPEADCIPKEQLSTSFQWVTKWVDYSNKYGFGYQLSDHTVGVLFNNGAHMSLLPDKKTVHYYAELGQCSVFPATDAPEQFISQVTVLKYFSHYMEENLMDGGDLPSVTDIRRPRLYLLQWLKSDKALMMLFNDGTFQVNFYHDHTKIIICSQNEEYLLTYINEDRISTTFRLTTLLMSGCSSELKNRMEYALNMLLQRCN
Experimental: (§1) The human PLK1-PBD (371-594), PLK2-PBD (451-685) and PLK3-PBD (412-646) genes were cloned into pGEX6p-1 vector using EcoRI/XhoI restriction sites. Proteins were over expressed in E. coli strain Rosetta2 (DE3) pLysS. The cells were grown in Terrific Broth medium to an OD600 of 0.6 at 37° C. and recombinant proteins were induced with 0.1 mM isopropyl b-D-thiogalactopyranoside (IPTG) at 25° C. for PLK2 and 20° C. for PLK1 and PLK3, respectively. The cells were further grown at 25° C. (PLK2) or 20° C. (PLK1 and PLK3) for 20 h after IPTG induction. Each cell pellet was lysed with each PLK Binding buffer as described below. […] The purified PLK-PBD proteins were concentrated and used for the fluorescence polarization binding assay.
(§2) For the fluorescence polarization binding assay, each fluorescein isothiocyanate (FITC)-labeled 1010pT (GVLSpTLI), 1010T (GVLSTLI), 1010E (GVLSELI), or 1010D (GVLSDLI) peptide was mixed with purified PLK1, PLK2 or PLK3 and incubated in a buffer containing 10 mM HEPES (pH 7.5), 50 mM NaCl, 1 mM EDTA, 1 mM DTT and 0.0025% (v/v) Tween 20. […] Fluorescence polarization was analyzed 30 min after mixing the peptide and proteins in a 96-well plate using an INFINTE 200 PRO (Tecan). […]

human PLK3-PBD (412-646) = molecular target: T3, human PLK3-PBD (412-646) (Homo sapiens, UniProt Q9H4B4); assay: Fluorescence polarization binding assay, PLK3-PBD; conditions: FITC-labelled peptide 10 nM, protein 0 to 4 uM
T3 construct: PLK3-PBD (412-646); GST (N, cleaved yes); made in house; host or cells: E. coli Rosetta2 (DE3) pLysS
T3 sequence (Q9H4B4 412-646): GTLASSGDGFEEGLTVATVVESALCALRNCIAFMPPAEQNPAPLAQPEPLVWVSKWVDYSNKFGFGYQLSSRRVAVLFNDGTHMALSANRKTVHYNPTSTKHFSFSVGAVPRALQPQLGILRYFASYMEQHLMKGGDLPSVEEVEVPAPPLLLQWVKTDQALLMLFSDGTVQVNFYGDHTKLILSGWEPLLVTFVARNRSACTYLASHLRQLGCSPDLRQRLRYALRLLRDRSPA
Experimental: as §1, §2

C. elegans = assay: Embryonic mitosis and development after nocodazole treatment of worms; type: in vivo; conditions: nocodazole alone, without capg-2 RNAi
Experimental: C. elegans were cultivated on NGM plates at 20° C. as a standard culture method (Brenner, S. Genetics 77, 71-94 (1974)). The capg-2 RNAi clone was obtained from Dr. J. Ahringer's bacteria-feeding RNAi library, which was a kind gift from Dr. J. Lee (Seoul National University). The wild-type N2 strain was used for measuring embryo lethality when capg-2 RNAi was treated with nocodazole. RW10006 (HIS-72::GFP), XA3501 (GFP::HIS-11 and GFP::TBB-2), JG479 (NPP-1::GFP, mCherry::HIS-58 and GFP::TBB-2) and SA17(GFP::PLK-1) were used to determine the effects of capg-2 knockdown on mitosis. JG479 was generated by crossing XA3501 and OCF3 (NPP-1::GFP and mCherry::HIS-58). HIS-72 is histone 3, and TBB-2 is β-tubulin. Both HIS-11 and HIS-58 are histone 2B proteins (www.wormbase.org). Most strains were provided by the CGC, which is funded by the NIH Office of Research Infrastructure Programs (P40 OD010440). For capg-2 RNA interference, L4 worms were transferred to the RNAi plate, and the F1 embryos were observed. The HT115 E. coli strain, which contains the empty RNAi vector (L4440), was used as the control. […] The worms were removed after laying eggs for 12 hours, and the dead embryos were counted the next day. […]

T1 sequence (P53350 371-594): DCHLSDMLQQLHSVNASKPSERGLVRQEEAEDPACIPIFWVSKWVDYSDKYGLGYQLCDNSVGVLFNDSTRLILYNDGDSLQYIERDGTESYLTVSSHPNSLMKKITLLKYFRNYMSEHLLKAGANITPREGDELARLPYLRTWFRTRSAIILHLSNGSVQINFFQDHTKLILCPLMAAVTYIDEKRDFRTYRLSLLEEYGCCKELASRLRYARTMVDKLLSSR

Compound | binding to PLK1-PBD (in words) (human PLK1-PBD (371-594)) | binding to PLK1-PBD (in words) (human PLK1-PBD (371-594); listed as GVLS-pT-LI) | binding to PLK2-PBD (in words) (human PLK2-PBD (451-685)) | binding to PLK3-PBD (in words) (human PLK3-PBD (412-646)) | effect on mitosis of embryos (C. elegans)
CC[C@H](C)[C@H](NC(=O)[C@H](CC(C)C)NC(=O)[C@@H](NC(=O)[C@H](CO)NC(=O)[C@H](CC(C)C)NC(=O)[C@@H](NC(=O)CN)C(C)C)[C@@H](C)OP(=O)(O)O)C(N)=O [1010pT, GVLSpTLI] (H-GVLS[pT]LI-NH2; N-terminus and C-terminus assumed) | specifically binds | interacts strongly | did not bind | did not bind | –
COC(=O)Nc1nc2ccc(C(=O)c3cccs3)cc2[nH]1 [Nocodazole, nocodazole] | – | – | – | – | did not directly affect mitosis
